Experimental data taken from patent US8815927B2, “Bivalent diazo bicyclic Smac mimetics and the uses thereof” (The Regents of the University of Michigan, priority 2009, dated 2014).

Experiments:
cIAP1 BIR3 Protein = cIAP1 BIR3 Protein (Homo sapiens (Human), UniProt Q13490); test: Fluorescence polarization-based competitive binding assay, cIAP-1 BIR3; details: 10 nM cIAP-1 BIR3 protein, 2 nM SM5F tracer
Description: (§1) An in vitro fluorescence polarization (FP) based binding assay was used to test the binding ability of the compounds of the present invention to certain IAP proteins (Nikolovska-Coleska et al., Anal. Biochem. 332:261-73 (2004)).
(§2) Human cIAP-1 BIR3-only (residues 253-363) and cIAP2 BIR3-only (residues 238-349) were cloned into pHis-TEV vector, produced and purified using the same method as for the XIAP BIR3 protein.
(§3) In competitive binding experiments, 10 nM of cIAP-1 BIR3 protein and 2 nM of SM5F tracer were used. […] In competitive binding experiments, 25 nM of cIAP-2 BIR3 protein and 2 nM of SM5F tracer were used.
(§4) For each competitive binding experiment, polarization values were measured after 2-3 hours incubation using an Ultra plate reader. The IC50 value, the inhibitor concentration at which 50% of bound tracer was displaced, was determined from the plot using nonlinear least-squares analysis. Curve fitting was performed using the PRISM software (GraphPad Software, Inc., San Diego, Calif.). Ki value for each compound was calculated based upon the IC50 value using a previously reported algorithm and its associated computer program (Nikolovska-Coleska et al., Anal. Biochem. 332:261-73 (2004)).

cIAP2 BIR3 Protein = cIAP2 BIR3 Protein (Homo sapiens (Human), UniProt Q13489); test: Fluorescence polarization-based competitive binding assay, cIAP-2 BIR3; details: 25 nM cIAP-2 BIR3 protein, 2 nM SM5F tracer
Description: as §1, §2, §3, §4

[1] = molecular target: XIAP Linker-BIR2-BIR3 Protein (Homo sapiens (Human), UniProt P98170); test: Fluorescence polarization-based binding assay, XIAP Linker-BIR2-BIR3; details: 3 nM XIAP protein (residues 120-356), 1 nM Smac2-F
Source text: An in vitro fluorescence polarization (FP) based binding assay was used to test the binding ability of the compounds of the present invention to XIAP linker-BIR2-BIR3 protein (Nikolovska-Coleska et al., Anal. Biochem. 374:87-98 (2008)).
For this assay a bivalent Smac peptido-mimetic labeled with a fluorescence tag (FAM), termed Smac2-F, was employed. […] The recombinant XIAP Linker-BIR2-BIR3 protein of human XIAP (residues 120-356) fused to His-tag was stable and soluble, and was used for the FP-based binding assay.
For the competitive binding experiments, a tested compound was incubated with 3 nM of XIAP protein (residues 120-356) and 1 nM of Smac2-F in the assay buffer (100 mM potassium phosphate, pH 7.5; 100 μg/ml bovine gamma globulin; 0.02% sodium azide) in black, round-bottom plates. For each experiment, the controls include XIAP and Smac2-F peptide (equivalent to 0% inhibition), and Smac-2F only (equal to 100% of inhibition). The polarization values are measured after 2 hours incubation, using the Ultra plate reader. The IC50 value, the inhibitor concentration at which 50% of bound tracer was displaced, is determined from the plot using nonlinear least-squares analysis. Curve fitting is performed using GraphPad Prism® software.

[2] = tested on: MDA-MB-231 human breast cancer cell line; test: Cancer cell growth inhibition, WST-8; format: cell-based; details: MDA-MB-231, 96 h, 4 days
Description: (§5) The effect of the compounds of the present invention on the growth of various cancer cell lines was tested. Cells were seeded in 96-well flat bottom cell culture plates at a density of 3000 cells/well with a tested compound and incubated at 37° C. in an atmosphere of 95% air and 5% CO2 for 4 days. The rate of cell growth inhibition after treatment with different concentrations of the compound was determined using a WST-8 kit (2-(2-methoxy-4-nitrophenyl)-3-(4-nitrophenyl)-5-(2,4 disulfophenyl)-2H-tetrazolium monosodium salt; Dojindo Molecular Technologies, Inc., Gaithersburg, Md.). WST-8 was added at a final concentration of 10% to each well, and then the plates were incubated at 37° C. for 2-3 hrs. The absorbance of the samples was measured at 450 nm using a ULTRA Tecan Reader (Molecular Device). The concentration of the tested compound that inhibited cell growth by 50% (IC50) was calculated by comparing absorbance in untreated cells and the cells treated with the tested compound.

[3] = tested on: breast cancer MDA-MB-231 cell line; test: Induction of cell death, trypan blue exclusion assay; format: cell-based, human; details: MDA-MB-231, 48 hours, FIG. 1
Description: (§6) The ability of SM-1258 and SM-1267 to induce cell death was tested in the breast cancer MDA-MB-231 (FIG. 1) and ovarian cancer SK-OV-3 (FIG. 2) cell lines. Cells were treated with SM-1258 and SM-1267 for 48 hours and cell viability was determined using the trypan blue exclusion assay.

[4] = tested on: ovarian cancer SK-OV-3 cell line; test: as above; format: cell-based, human; details: SK-OV-3, 48 hours, FIG. 2
Description: as §6

[5] = tested on: SK-OV-3 ovarian cancer cell line; test: Cancer cell growth inhibition, WST-8; format: cell-based; details: Homo sapiens, SK-OV-3, 96 h, 4 days
Description: as §5

XIAP BIR3 = XIAP BIR3 (Homo sapiens (Human), UniProt P98170); details: cited from earlier work
XIAP BIR3, sequence (P98170 241-356): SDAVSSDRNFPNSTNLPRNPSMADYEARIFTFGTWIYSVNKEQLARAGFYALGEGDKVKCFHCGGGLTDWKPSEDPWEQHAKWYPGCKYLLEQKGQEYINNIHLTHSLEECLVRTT

XIAP Linker-BIR2-BIR3 Protein, sequence (P98170 120-356): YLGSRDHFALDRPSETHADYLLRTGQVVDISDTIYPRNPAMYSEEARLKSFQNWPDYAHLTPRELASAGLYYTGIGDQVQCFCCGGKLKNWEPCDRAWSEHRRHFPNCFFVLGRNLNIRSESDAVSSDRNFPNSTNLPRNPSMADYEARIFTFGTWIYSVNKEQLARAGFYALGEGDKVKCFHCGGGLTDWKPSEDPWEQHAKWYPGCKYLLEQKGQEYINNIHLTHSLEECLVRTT
cIAP1 BIR3 Protein, sequence (Q13490 253-363): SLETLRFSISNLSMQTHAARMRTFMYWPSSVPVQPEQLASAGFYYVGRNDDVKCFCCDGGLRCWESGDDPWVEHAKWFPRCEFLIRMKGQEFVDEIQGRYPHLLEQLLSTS
cIAP2 BIR3 Protein, sequence (Q13489 238-349): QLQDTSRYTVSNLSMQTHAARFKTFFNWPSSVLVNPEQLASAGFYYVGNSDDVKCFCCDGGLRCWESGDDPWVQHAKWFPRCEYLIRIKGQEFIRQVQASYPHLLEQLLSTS

Q: Which IC50 (cIAP1 BIR3 Protein) does the source give for `CN[C@@H](C)C(=O)N[C@H]1CN(C(=O)CCCCCCCCC(=O)N2CC[C@H]3CC[C@@H](c4nc5cccc(-c6ccccc6)c5[nH]4)N3C(=O)[C@@H](NC(=O)[C@H](C)NC)C2)CC[C@H]2CC[C@@H](c3nc4c(-c5ccccc5)cccc4[nH]3)N2C1=O` [SM-1267] here?
A: < 10 nM

Q: What about the IC50 (cIAP2 BIR3 Protein) of the same molecule?
A: < 50 nM

Q: What about the IC50 [1] of the same molecule?
A: < 10 nM

Q: What about the IC50 [2] of the same molecule?
A: < 10 nM

Q: And the “induction of cell death” value [3]?
A: induced cell death

Q: And the “induction of cell death” value [4]?
A: induced cell death

Q: For `CN[C@@H](C)C(=O)N[C@H]1CN(C(=O)CCCCCCC(=O)N2CC[C@H]3CC[C@@H](c4nc5cccc(-c6ccccc6)c5[nH]4)N3C(=O)[C@@H](NC(=O)[C@H](C)NC)C2)CC[C@H]2CC[C@@H](c3nc4c(-c5ccccc5)cccc4[nH]3)N2C1=O` [SM-1266], which IC50 (cIAP1 BIR3 Protein) is on record?
A: < 10 nM

Q: And the IC50 (cIAP2 BIR3 Protein)?
A: < 20 nM

Q: And the IC50 [1]?
A: < 10 nM

Q: And the IC50 [2]?
A: < 10 nM

Q: With `CN[C@@H](C)C(=O)N[C@H]1CN(C(=O)CCCCOCCCCC(=O)N2CC[C@H]3CC[C@@H](c4nc5cccc(-c6ccccc6)c5[nH]4)N3C(=O)[C@@H](NC(=O)[C@H](C)NC)C2)CC[C@H]2CC[C@@H](c3nc4c(-c5ccccc5)cccc4[nH]3)N2C1=O` [SM-1259] as the molecule, how does the IC50 (cIAP1 BIR3 Protein) read?
A: < 10 nM

Q: What about the IC50 (cIAP2 BIR3 Protein) of the same molecule?
A: < 20 nM

Q: And the IC50 [1]?
A: < 10 nM

Q: And the IC50 [2]?
A: < 10 nM

Q: Which IC50 (cIAP1 BIR3 Protein) does the source give for `CN[C@@H](C)C(=O)N[C@H]1CN(C(=O)CCCCC(=O)N2CC[C@H]3CC[C@@H](c4nc5cccc(-c6ccccc6)c5[nH]4)N3C(=O)[C@@H](NC(=O)[C@H](C)NC)C2)CC[C@H]2CC[C@@H](c3nc4c(-c5ccccc5)cccc4[nH]3)N2C1=O` [SM-1265] here?
A: < 10 nM

Q: What about the IC50 (cIAP2 BIR3 Protein) of the same molecule?
A: < 10 nM

Q: And the IC50 [1]?
A: < 50 nM

Q: And the IC50 [2]?
A: < 50 nM

Q: Which IC50 (cIAP1 BIR3 Protein) does the source give for `CN[C@@H](C)C(=O)N[C@H]1CN(C(=O)CCCCCCCCCCC(=O)N2CC[C@H]3CC[C@@H](c4nc5cccc(-c6ccccc6)c5[nH]4)N3C(=O)[C@@H](NC(=O)[C@H](C)NC)C2)CC[C@H]2CC[C@@H](c3nc4c(-c5ccccc5)cccc4[nH]3)N2C1=O` [SM-1258] here?
A: < 50 nM

Q: And the IC50 [1]?
A: < 10 nM

Q: What about the IC50 [2] of the same molecule?
A: < 10 nM

Q: And the IC50 [5]?
A: < 20 nM

B1: mature Smac protein: second mitochondria-derived activator of caspases, mature polypeptide (protein, UniProt Q9NR28 22-239, looked up)
Diablo IAP-binding …: LCVPVVANFKKRCFSELIRPWHKTVTIGFGVTLCAVPIAQKSEPHSLSSEALMRRAVSLVTDSTSTFLSQTTYALIEAITEYTKAVYTLTSLYRQYTSLLGKMNSEEEDEVWQVIIGARAEMTSKHQEYLKLETTWMTAVGLSEMAAEAAYQTGADQASITARNHIQLVKLQVEEVHQLSRKAETKLAEAQIEELRQKTQEEGEERAESEQEAYLRED
Q: For B1, which Kd (XIAP BIR3) is on record?
A: 420 nM
